Laboratory results published in PubChem BioAssay AID1919016 (Molecular Pharmacology Branch, DTP, NCI, 2023).

Tested on: NCI-H196 complex spheroid growth, percent test/control
Experiment: Anticancer human tumor NCI-H196 cell line growth inhibition [AhR];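 further: seven days of drug exposure starting three days after plating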;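 on viability, T/C: 100% = DMSO vehicle control wells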
Conditions: for IC50: curve of first compound; for viability, T/C: stronger effect = lower value
Outline: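 Agents were dosed in half-log steps down from roughly clinical Cmax, or from 10 microM where Cmax was unknown, alone and with AhR antagonists. Read-out: percent test/control growth of tumor spheroids containing HUVEC and MSC stromal cells.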

[1] = second compound 0.1 µM, first compound 0.0316 µM
[2] = second compound 0.1 µM, first compound 0.1 µM
[3] = second compound 0.1 µM, first compound 0.316 µM
[4] = second compound 0.1 µM, first compound 1 µM
[5] = second compound 0.1 µM, first compound 3.16 µM
[6] = second compound 0.1 µM, first compound 10 µM
[7] = second compound 0.316 µM, first compound 0.0316 µM
[8] = second compound 0.316 µM, first compound 0.1 µM
[9] = second compound 0.316 µM, first compound 0.316 µM
[10] = second compound 0.316 µM, first compound 1 µM
[11] = second compound 0.316 µM, first compound 3.16 µM
[12] = second compound 0.316 µM, first compound 10 µM
[13] = second compound 1 µM, first compound 0.0316 µM
[14] = second compound 1 µM, first compound 0.1 µM
[15] = second compound 1 µM, first compound 0.316 µM
[16] = second compound 1 µM, first compound 1 µM
[17] = second compound 1 µM, first compound 3.16 µM
[18] = second compound 1 µM, first compound 10 µM
[19] = second compound 3.16 µM, first compound 0.0316 µM
[20] = second compound 3.16 µM, first compound 0.1 µM
[21] = second compound 3.16 µM, first compound 0.316 µM
[22] = second compound 3.16 µM, first compound 1 µM
[23] = second compound 3.16 µM, first compound 3.16 µM
[24] = second compound 3.16 µM, first compound 10 µM
[25] = second compound 10 µM, first compound 0.0316 µM
[26] = second compound 10 µM, first compound 0.1 µM
[27] = second compound 10 µM, first compound 0.316 µM
[28] = second compound 10 µM, first compound 1 µM
[29] = second compound 10 µM, first compound 3.16 µM
[30] = second compound 10 µM, first compound 10 µM

## COc1ccc([C@@H](O)c2cc(-c3ncnc4cc(N5CCOCC5)ccc34)c(F)cc2Cl)nn1 + Cc1cncc(-c2nc(NCCc3c[nH]c4ccccc34)c3ncn(C(C)C)c3n2)c1
Second compound 0.1 µM
  IC50: > 10 µM
Second compound 0.316 µM
  IC50: > 10 µM
Second compound 1 µM
  IC50: > 10 µM
Second compound 3.16 µM
  IC50: > 10 µM
Second compound 10 µM
  IC50: > 10 µM
[1]
  viability, T/C: 102%
[2]
  viability, T/C: 101%
[3]
  viability, T/C: 97%
[4]
  viability, T/C: 91.4%
[5]
  viability, T/C: 78.7%
[6]
  viability, T/C: 84.7%
[7]
  viability, T/C: 95.3%
[8]
  viability, T/C: 99.6%
[9]
  viability, T/C: 101%
[10]
  viability, T/C: 97.7%
[11]
  viability, T/C: 92.6%
[12]
  viability, T/C: 80.7%
[13]
  viability, T/C: 104%
[14]
  viability, T/C: 111%
[15]
  viability, T/C: 97.6%
[16]
  viability, T/C: 87.3%
[17]
  viability, T/C: 95.5%
[18]
  viability, T/C: 84%
[19]
  viability, T/C: 105%
[20]
  viability, T/C: 108%
[21]
  viability, T/C: 106%
[22]
  viability, T/C: 94.2%
[23]
  viability, T/C: 94%
[24]
  viability, T/C: 94.2%
[25]
  viability, T/C: 69.8%
[26]
  viability, T/C: 90.4%
[27]
  viability, T/C: 92.2%
[28]
  viability, T/C: 77.7%
[29]
  viability, T/C: 77.8%
[30]
  viability, T/C: 71%

## O=C(C=Cn1cnc(-c2cc(C(F)(F)F)cc(C(F)(F)F)c2)n1)NNc1cnccn1 + Cc1cncc(-c2nc(NCCc3c[nH]c4ccccc34)c3ncn(C(C)C)c3n2)c1
Second compound 0.1 µM
  IC50: 0.0443 µM
Second compound 0.316 µM
  IC50: 0.034 µM
Second compound 1 µM
  IC50: 0.042 µM
Second compound 3.16 µM
  IC50: 0.0402 µM
Second compound 10 µM
  IC50: 0.0387 µM
Second compound 0.1 µM, first compound 0.00949 µM
  viability, T/C: 75.3%
Second compound 0.1 µM, first compound 0.03 µM
  viability, T/C: 65%
Second compound 0.1 µM, first compound 0.0949 µM
  viability, T/C: 20.6%
Second compound 0.1 µM, first compound 0.3 µM
  viability, T/C: 8.92%
Second compound 0.1 µM, first compound 0.949 µM
  viability, T/C: 8.7%
Second compound 0.1 µM, first compound 3 µM
  viability, T/C: 5.72%
Second compound 0.316 µM, first compound 0.00949 µM
  viability, T/C: 73.5%
Second compound 0.316 µM, first compound 0.03 µM
  viability, T/C: 52.7%
Second compound 0.316 µM, first compound 0.0949 µM
  viability, T/C: 25.1%
Second compound 0.316 µM, first compound 0.3 µM
  viability, T/C: 9.13%
Second compound 0.316 µM, first compound 0.949 µM
  viability, T/C: 9.31%
Second compound 0.316 µM, first compound 3 µM
  viability, T/C: 8.45%
Second compound 1 µM, first compound 0.00949 µM
  viability, T/C: 71%
Second compound 1 µM, first compound 0.03 µM
  viability, T/C: 59.2%
Second compound 1 µM, first compound 0.0949 µM
  viability, T/C: 27.9%
Second compound 1 µM, first compound 0.3 µM
  viability, T/C: 13%
Second compound 1 µM, first compound 0.949 µM
  viability, T/C: 8.4%
Second compound 1 µM, first compound 3 µM
  viability, T/C: 7.77%
Second compound 3.16 µM, first compound 0.00949 µM
  viability, T/C: 80%
Second compound 3.16 µM, first compound 0.03 µM
  viability, T/C: 59.4%
Second compound 3.16 µM, first compound 0.0949 µM
  viability, T/C: 22.4%
Second compound 3.16 µM, first compound 0.3 µM
  viability, T/C: 10.5%
Second compound 3.16 µM, first compound 0.949 µM
  viability, T/C: 8.06%
Second compound 3.16 µM, first compound 3 µM
  viability, T/C: 8.49%
Second compound 10 µM, first compound 0.00949 µM
  viability, T/C: 65.2%
Second compound 10 µM, first compound 0.03 µM
  viability, T/C: 62.8%
Second compound 10 µM, first compound 0.0949 µM
  viability, T/C: 4.24%
Second compound 10 µM, first compound 0.3 µM
  viability, T/C: 2.39%
Second compound 10 µM, first compound 0.949 µM
  viability, T/C: 8.19%
Second compound 10 µM, first compound 3 µM
  viability, T/C: 5.29%

## COc1cc(C2c3cc4c(cc3C(OC3OC5COC(C)OC5C(O)C3O)C3COC(=O)C23)OCO4)cc(OC)c1O (stereo not given) + Cc1cncc(-c2nc(NCCc3c[nH]c4ccccc34)c3ncn(C(C)C)c3n2)c1
Second compound 0.1 µM
  IC50: > 10 µM
Second compound 0.316 µM
  IC50: > 10 µM
Second compound 1 µM
  IC50: > 10 µM
Second compound 3.16 µM
  IC50: > 10 µM
Second compound 10 µM
  IC50: > 10 µM
[1]
  viability, T/C: 104%
[2]
  viability, T/C: 103%
[3]
  viability, T/C: 98.9%
[4]
  viability, T/C: 99.8%
[5]
  viability, T/C: 103%
[6]
  viability, T/C: 96.7%
[7]
  viability, T/C: 104%
[8]
  viability, T/C: 109%
[9]
  viability, T/C: 101%
[10]
  viability, T/C: 105%
[11]
  viability, T/C: 112%
[12]
  viability, T/C: 89.4%
[13]
  viability, T/C: 99.7%
[14]
  viability, T/C: 112%
[15]
  viability, T/C: 104%
[16]
  viability, T/C: 109%
[17]
  viability, T/C: 103%
[18]
  viability, T/C: 77.8%
[19]
  viability, T/C: 108%
[20]
  viability, T/C: 114%
[21]
  viability, T/C: 112%
[22]
  viability, T/C: 105%
[23]
  viability, T/C: 100%
[24]
  viability, T/C: 81.9%
[25]
  viability, T/C: 89.1%
[26]
  viability, T/C: 92%
[27]
  viability, T/C: 101%
[28]
  viability, T/C: 84.3%
[29]
  viability, T/C: 77.4%
[30]
  viability, T/C: 62%
